Columns and labels:
[1] = system: wild-type SFSV virus (SFTSV-WT); type: in vivo; conditions: A129 mice infected with SFTSV-WT; X28-1 20 mpk intragastric once daily Day 0 to Day 6
[2] = system: respiratory syncytial virus (RSV A2); test: In vivo efficacy for respiratory syncytial virus (RSV) in mice
[3] = Cytotoxicity in HEp-2 cells (CCK8); conditions: human
[4] = system: influenza virus (IFV) A/California/07/2009 (H1N1) pdm09 strain; test: In vitro activity against influenza virus (CPE, CCK8, MDCK cells); type: cell-based; conditions: 120 h, read-out: IFV (MDCK) EC50
SFTSV-Nluc [5] = test: microbe, parasite or virus in culture; type: cell-based, severe fever with thrombocytopenia syndrome virus (SFTSV); conditions: Severe fever with thrombocytopenia syndrome virus, Vero, 48 h
SFTSV-Nluc [6] = system: SFTSV-Nluc; set-up: species or system A129 mice; conditions: mouse
[7] = Stability test of compounds in solutions at different pH values
[8] = system: respiratory syncytial virus (RSV) A long strain; test: In vitro activity against respiratory syncytial virus (CPE, CCK8, HEp-2 cells); type: cell-based; conditions: human respiratory syncytial virus, 120 h, MOI=0.02, 5 days
[9] = Pharmacokinetic evaluation in rats (Test Example 2); type: in vivo; conditions: rat, nucleoside X28-1 in plasma, male SD rats, single iv 5.0 mg/kg
Experimental: A total of 12 male SD rats, divided into intravenous (IV) and intragastric (PO) groups, were fasted for 12 h before the experiment (the intravenous group was not fasted), with free access to water, and were fed together 2 h after administration. Compound X28-1 was intragastrically administered at a dose of 10.0 mg/kg (n=3) and intravenously injected at a dose of 5.0 mg/kg (n=3), and both compound X52 and compound X55 were intragastrically administered at a dose of 18.0 mg/kg (n=3), with a vehicle of 5% DMSO+5% enthanol+40% PEG400+50% saline. For the intravenous group, 0.2-0.3 mL of blood was collected via the jugular vein at 5 min, 0.25 h, 0.5 h, 1.0 h, 2.0 h, 4.0 h, 8.0 h, and 24.0 h after administration, and for the intragastric group, at 5 min, 0.5 h, 1.0 h, 2.0 h, 4.0 h, 6.0 h, 8.0 h, and 24.0 h after administration. The blood samples were transferred into heparin sodium anticoagulation tubes, gently mixed uniformly, and centrifuged at 2000 g for 10 min. Plasma was isolated and frozen in a refrigerator at −70° C. for later detection. The concentration of nucleoside X28-1 in the plasma was determined by the LC-MS-MS method and pharmacokinetic parameters were calculated.

[10] = Pharmacokinetic evaluation in cynomolgus monkeys (Test Example 5); type: in vivo; conditions: cynomolgus monkey, nucleoside X28-1 in plasma, male cynomolgus monkeys, single iv 1.0 mg/kg
Experimental: Male cynomolgus monkeys were fasted for 12 h before intragastric administration, with free access to water, and were fed together 2 h after administration. X28-1 was intravenously administered at a dose of 1.0 mg/kg (n=3) and intragastrically administered at a dose of 5.0 mg/kg (n=3), and X219 hydrochloride was intragastrically administered at a dose of 10.7 mg/kg (n=3), with a vehicle for the compounds of 5% DMSO+5% enthanol+40% PEG400+50% saline. 0.5 mL of blood was collected via the forelimb vein at 5 min (intravenous only), 0.25 h, 0.5 h, 1.0 h, 2.0 h, 4.0 h, 6.0 h, 8.0 h, and 24.0 h after administration. The blood samples were transferred into heparin sodium anticoagulation tubes, gently shaken and mixed uniformly, put on ice, and immediately centrifuged (4° C., 2000 g, 10 min). After centrifugation, 100 μL of plasma was accurately pipetted and added to a plastic tube containing 400 μL of methanol solution with an internal standard, temporarily stored on dry ice after being vortexed, and then stored in an ultra-low temperature refrigerator for later detection. The concentration of nucleoside X28-1 in the plasma was determined by the LC-MS-MS method and pharmacokinetic parameters were calculated.

in vitro = conditions: dog
[11] = Pharmacokinetic evaluation in rats (Test Example 1); type: in vivo; conditions: rat, nucleoside X28-1 in plasma, male SD rats, single iv 10.0 mg/kg
Experimental: Male SD rats, divided into intravenous (iv) and intragastric (po) groups, were fasted for 16 h before the experiment (the intravenous group was not fasted), with free access to water, and were fed together 2 h after administration. Compound X28-1 was intravenously injected at a dose of 10.0 mg/kg (n=3), and compounds X22, X51, and X102 (n=3) were intragastrically administered in equimolar amounts to X28-1, which were 15.5 mg/kg, 16.5 mg/kg, and 16.6 mg/kg, respectively, with a vehicle of 5% DMSO+5% enthanol+40% PEG400+50% saline. 0.2-0.3 mL of blood was collected via the jugular vein at 5 min (intravenous only), 0.25 h, 0.5 h, 1.0 h, 2.0 h, 4.0 h, 6.0 h, 8.0 h, and 24 h after administration. The blood samples were transferred into heparin sodium anticoagulation tubes, gently mixed uniformly, and centrifuged at 2000 g for 10 min. Plasma was isolated and frozen in a refrigerator at −70° C. for later detection. The concentration of nucleoside X28-1 in the plasma was determined by the LC-MS-MS method and pharmacokinetic parameters were calculated.

## O=c1ccn([C@@H]2O[C@](F)(CO)[C@@H](O)[C@H]2O)c(=O)[nH]1 [Compound X28-1, reference compound]
[1]
  change in the body weight: no significant change
  survival rate: 100%
[2]; 10 mpk intragastric once daily, Day 4
  reduction in the pulmonary viral load compared with the vehicle group: about 0.4 log10
[2]; RSV A2-infected BALB/C mice, X219 hydrochloride 20 mpk or X28-1 10 mpk intragastric once daily
  change in the body weight: began to show an increase in the body weight on Day 3
[3]
  CC50 at 5 days: > 10 µM
[4]
  EC50: < 0.37 µM
SFTSV-Nluc [5]
  EC50: 0.8 µM
SFTSV-Nluc [5]; read-out: Inhibition rate (10 μM)
  inhibition at 10 µM: 95.3%
SFTSV-Nluc [6]
  in vivo fluorescence imaging, fluorescence intensity on ventral and dorsal side: negligible fluorescence intensity
SFTSV-Nluc [6]; in vivo, 20 mg/kg
  change in the body weight: no significant change
  in vitro imaging of spleen, kidneys, liver and intestine: fluorescence intensity compared with the SFTSV-Nluc vehicle group: significantly weaker
  spleen/body weight ratio and kidney/body weight ratio: consistent with those in the blank control group
  survival rate: 100%
  viral titer and copy number in the spleen and kidney compared with the SFTSV-Nluc vehicle group: significantly reduced
[7]; buffered saline solution pH 4.0, 3 h
  Content reduction (%): 5.7%
[7]; buffered saline solution pH 4.0, 6 h
  Content reduction (%): 12.2%
[7]; buffered saline solution pH 4.0, 9 h
  Content reduction (%): 17.5%
[7]; buffered saline solution pH 4.0, 12 h
  Content reduction (%): 22.2%
[7]; buffered saline solution pH 4.0, 15 h
  Content reduction (%): 26.9%
[7]; buffered saline solution pH 4.0, 18 h
  Content reduction (%): 30.3%
[7]; buffered saline solution pH 4.0, 21 h
  Content reduction (%): 35.9%
[7]; buffered saline solution pH 4.0, 24 h
  Content reduction (%): 40.1%
[7]; buffered saline solution pH 6.8, 3 h
  Content reduction (%): 8.0%
[7]; buffered saline solution pH 6.8, 6 h
  Content reduction (%): 15.3%
[7]; buffered saline solution pH 6.8, 9 h
  Content reduction (%): 22.0%
[7]; buffered saline solution pH 6.8, 12 h
  Content reduction (%): 28.3%
[7]; buffered saline solution pH 6.8, 15 h
  Content reduction (%): 33.4%
[7]; buffered saline solution pH 6.8, 18 h
  Content reduction (%): 38.0%
[7]; buffered saline solution pH 6.8, 21 h
  Content reduction (%): 42.9%
[7]; buffered saline solution pH 6.8, 24 h
  Content reduction (%): 46.9%
[8]
  EC50: 6.06 µM
[9]
  AUC(0-inf): 8690 ng·h/mL
  AUC(0-t): 8290 ng·h/mL
  Cmax: 2620 ng/mL
  half-life: 6.09 h
[9]; read-out: MRT0-∞
  MRT inf: 6.89 h
[10]
  AUC(0-inf): 3720 ng·h/mL
  AUC(0-t): 3610 ng·h/mL
  half-life: 5.38 h
[10]; read-out: MRT0-∞
  MRT inf: 4.21 h
In vitro
  CC50: > 10 µM
[11]
  AUC(0-inf): 22100 ng·h/mL
  AUC(0-t): 20000 ng·h/mL
  Cmax: 8080 ng/mL
  half-life: 6.9 h
[11]; read-out: MRT0-∞
  MRT inf: 8.33 h
